Assay results published in US20030187261A1, “Purine derivatives, process for their preparation and use thereof” (priority 2000, published 2003).

What was measured:
[1] = system: T-lymphoblastic leukemia cell line CEM; experiment: MTT cytotoxicity assay, CEM; assay type: cell-based, human; conditions: Homo sapiens, 72 hours (TCS50 in the method)
Outline: (§1)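 Cells pre-incubated 24 h, then exposed to six 4-fold dilutions (top well concentration typically 266.7 μM) in duplicate for 72 h at 37 °C, 5% CO2. MTT read-out, SDS-solubilized formazan measured at 540 nm. TCS50, the concentration lethal to 50% of tumour cells, derived from dose-response curves.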

normal human lymphocytes = experiment: concanavalin A induced lymphocyte proliferation, [3H]-TdR incorporation; assay type: cell-based; conditions: Homo sapiens, Lymphocyte, 72 hours, read-out: ED50 (the source's name)
Description: Human heparinized peripheral blood was obtained from healthy volunteers by cubital vein punction. The blood was diluted in PBS (1:3) and mononuclear cells were separated by centrifugation in Ficoll-Hypaque density gradient (Pharmacia, 1.077 g/ml) at 2200 rpm for 30 minutes. Following centrifugation, lymphocytes were washed in PBS and resuspended in cell culture medium (RMPI 1640, 2 mM glutamine, 100 U/ml penicillin, 100 μg/ml streptomycin, 10% fetal calf serum and sodium bicarbonate).
The cells were diluted at target density of 1100000 cells/ml and were added by pipette (180 μl) into 96/well microtiter plates. Four-fold dilutions of the intended test concentration were added at time zero in 20 μl aliquots to the microtiter plate wells. Usually, test compound was evaluated at six 4-fold dilutions. In routine testing, the highest well concentration was 266.7 μM. All drug concentrations were examined in duplicates. All wells with exception of unstimulated controls were activated with 50 μl of concanavalin A (25 μg/ml). Incubations of cells with test compounds lasted for 72 hours at 37° C., in 5% CO2 atmosphere and 100% humidity. At the end of incubation period, the cells were assayed by using the [^3H]-TdR:
Cell cultures were incubated with […] (20 μl of stock solution 500 μCi/ml) per well for 6 hours at 37° C. and 5% CO2. The automated cell harvester was used to lyse cells in water and adsorb the DNA onto glass-fiber filters in the format of microtiter plate. The DNA incorporated [^3H]-TdR was retained on the filter while unincorporated material passes through. The filters were dried at room temperature overnight, sealed into a sample bag with 10-12 ml of scintillant. The amount of [^3H]-TdR present in each filter (in cpm) was determined by scintillation counting in a Betaplate liquid scintillation counter. The effective dose of immunosuppressant (ED) was calculated using the following equation: ED=(cpmdrug exposed well/mean cpmcontrol wells)×100%. The EDs50 value, the drug concentration inhibiting proliferation of 50% of lymphocytes, was calculated from the obtained dose response curves.
To evaluate immunosuppressive activity of substituted adenines, their ability to inhibit polyclonal mitogen induced proliferation of normal human lymphocytes was analyzed (Table 8). […] Effective immunosuppressive dose of new derivatives under in vitro conditions was close to 1-20 μM.

B16 melanoma = experiment: MTT cytotoxicity assay, B16; assay type: cell-based, mouse; conditions: Mus musculus, B16, 72 hours (TCS50 in the method)
Outline: as §1

Structure (SMILES): CCCCCCNc1nc(NC(CO)c2ccccc2)c2ncn(C(C)C)c2n1 (stereo not drawn) [P23, 2-(hexylamino)-6-(1-phenyl-2-hydroxyethylamino)-9-isopropylpurine]
- IC50 [1]: 34 µM
- EC50 (normal human lymphocytes): 56 µM
- IC50 (B16 melanoma): 36.8 µM
